Converted amounts (≈) assume the structure as drawn.
How the values were obtained:
[1] = tested on: HBV DNA in HepG2.2.15 cells; assay: In vitro cell HBV DNA inhibitory activity (anti-HBV activity) in HepG2.2.15 cells; type: cell-based; settings: Hepatitis B virus, 144 h; anti-HBV activity in HepG2.2.15 cells, 6 days treatment, intracellular capsid HBV DNA by qPCR; read-out: EC50
Protocol: (§1) A bottle of HepG2.2.15 or HepAD38 cells in good exponential growth state was taken, washed once by adding 5 mL PBS, and then thereto was added 3 mL trypsin. After digesting at room temperature for 5 min, 2 mL trypsin was discarded, and then the sample was placed in a cell culture incubator and digested for 10 min. The cells were taken out from time to time and observed under a microscope (whether the cells were individually round and there was no adhesion between the cells). 10 mL complete medium was added to terminate the digestion. After pipetting into a single cell suspension, 10 μL of the cell suspension was taken out for cell counting with a cell counter, and then diluted with a complete medium and adjusted to a cell density of 1*10^5 cells/mL. Then the cell suspension was seeded at 1 mL/well in a 24-well plate with a multi-channel pipette (the 24-well plate was coated with 50 μg/mL Collagen I solution in advance), and cultured in a constant temperature CO2 incubator for 48 h.
(§2) Different compounds dissolved in DMSO were subjected to two-fold gradient dilution (10 concentrations in total) with complete medium. The compound was added, and fresh medium containing the compound was used to replace the spent medium every 72 hours. The cells were treated with the compound for 6 days. After the supernatant was siphoned off, 300 μL lysate (10 mM Tris-HCl, 1 mM EDTA, and 1% NP-40) was added to each well. After lysing at room temperature for 10 min, DNA was extracted, and HBV DNA in the intracellular viral capsid was measured by real-time fluorescence quantitative PCR. The inhibition rate was calculated based on the Ct value, and the EC50 value was calculated by the four-parameter method.

[2] = Stability of human liver microsomes in vitro; type: in vitro ADME
Protocol: (§3) 300 μL of a final incubation system contains 30 μL of liver microsomes (protein concentration: 0.15 mg/mL), 30 μL NADPH+MgCl2, 3 μL substrate (formulated with acetonitrile), and 237 μL PBS buffer. Duplicate incubation systems of 0.3 mL each were formulated for each species. A total volume of 270 μL of a uniformly mixed solution of the substrate and the enzyme was formulated in each tube, the solution and NADPH were pre-incubated at 37° C. for 5 minutes, respectively. Then 30 μL of the mixed solution of NADPH+MgCl2 was added for reaction. 50 μL of the reaction solution was taken out at 0, 10, 30, and 60 mins, and the reaction was terminated with 300 μL of ice acetonitrile containing an internal standard.
(§4) Sample pre-treatment: To 50 μL of the incubated sample was added 300 μL of ice acetonitrile containing diazepam as an internal standard and then precipitated. After vortexing for 5 minutes, the sample was centrifugated (12000 rpm, 4° C.) for 10 minutes. 75 μL of the supernatant was pipetted into a 96-well plate, and then diluted with 75 μL ultrapure water and mixed uniformly. 0.5 μL of the resulting solution was injected and analyzed by LC-MS/MS.

HBV DNA in HepAD38 cells = assay: In vitro cell HBV DNA inhibitory activity (anti-HBV activity) in HepAD38 cells; type: cell-based; settings: Hepatitis B virus, 144 h; anti-HBV activity in HepAD38 cells, 6 days treatment, intracellular capsid HBV DNA by qPCR; read-out: EC50
Protocol: as §1, §2

[3] = In vitro cytotoxicity (CCK-8) in HepAD38 cells; type: cell-based; settings: human
Protocol: (§5) A bottle of HepG2.2.15 or HepAD38 cells in good exponential growth state was taken, washed once by adding 5 mL PBS, and then thereto was added 3 mL trypsin. The sample was digested in a cell culture incubator, and taken out from time to time and observed under a microscope. When the cells just fell off, 1 mL trypsin was discarded. The residual liquid was placed in a cell culture incubator at 37° C. and digested for 8-15 min. The cells were taken out and observed under a microscope (whether the cells were individually round and there was no adhesion between the cells). 5 mL MEM medium was added for cell resuspension. The cells were then subjected to cell counting with a cell counter, diluted with a complete medium, and adjusted to a cell density of 2*10^5 cells/mL. Then the cells were seeded at 100 μL/well in a 96-well plate with a multi-channel pipette (the 96-well plate was coated with 50 μg/mL Collagen I solution in advance), and cultured in a constant temperature CO2 incubator for 24 h. The cells were treated by drug administration, and fresh medium containing the compound was used to replace the spent medium every 3 days. To control wells was added a drug-free medium containing 0.5% DMSO, and a control well containing a common medium was set up. 6 days after the administration, CCK-8 was added at 10 μL/well. After 1 to 2 hours, the absorbance was detected with microplate reader at 450 nm, and the inhibition rate and the CC50 were calculated.

[4] = In vitro cytotoxicity (CCK-8) in HepG2.2.15 cells; type: cell-based; settings: human
Protocol: as §5

[5] = Stability of rat liver microsomes in vitro; type: in vitro ADME
Protocol: as §3, §4

[6] = Solubility in PBS buffer at pH 7.4; type: physicochemical; settings: aqueous buffer, PBS buffer pH 7.4, 25° C.
Protocol: […] After standing at 25° C. for 16 hours, the system was centrifugated (12000 rpm, room temperature) for 10 min. 20 μL of the supernatant was taken out, and the reaction was terminated with 400 μL of acetonitrile containing an internal standard (diazepam 20 ng/mL). 30 μL of the supernatant was pipetted, and 150 μL of 50% acetonitrile aqueous solution was added thereto for dilution and mixed uniformly. 0.5 μL of the resulting solution was injected for analysis.

[7] = Stability of mouse liver microsomes in vitro; type: in vitro ADME
Protocol: as §3, §4

SMILES	EC50 [1] [nM]	Remaining (%) at 60 min [2] [%]	EC50 (HBV DNA in HepAD38 cells) [nM]	CC50 at 6 days [3] [nM]	CC50 at 6 days [4] [nM]	Remaining (%) at 60 min [5] [%]	solubility at 16 h [6] [µM]	Remaining (%) at 60 min [7] [%]
C#CCNC(=O)C(=O)c1c(C)c(C(=O)Nc2ccc(F)c(C#N)c2)c(C)n1C [Example 1, N-(3-cyano-4-fluorophenyl)-1,2,4-trimethyl-5-(2-oxo-2-(prop-2-yn-1-ylamino)acetyl)-1H-pyrrole-3-carboxamide]	10 to 50	69	10 to 50	> 100000	> 100000	44		
Cc1c(C(=O)Nc2ccc(F)c(C#N)c2)c(C)n(C)c1C(=O)C(=O)NC12CC(C1)C2 [Example 2, 5-(2-(Bicyclo[1.1.1]pentan-1-ylamino)-2-oxoacetyl)-N-(3-cyano-4-fluorophenyl)-1,2,4-trimethyl-1H-pyrrole-3-carboxamide]	< 10		< 10	> 100000			22.1 (≈ 9.03 µg/mL)	
Cc1c(C(=O)Nc2ccc(F)c(C#N)c2)c(C)n(C)c1C(=O)C(=O)NC1(C)COC1 [Example 6, N-(3-cyano-4-fluorophenyl)-1,2,4-trimethyl-5-(2-(3-methyloxetan-3-ylamino)-2-oxoacetyl)-1H-pyrrole-3-carboxamide]	10 to 50	79.1	10 to 50	> 100000	> 100000	74.9	81.8 (≈ 33.7 µg/mL)	55
Cc1c(C(=O)Nc2ccc(F)c(C#N)c2)c(C)n(C)c1C(=O)C(=O)NC1CCOC1 (stereo not shown) [Example 7, N-(3-cyano-4-fluorophenyl)-1,2,4-trimethyl-5-(2-oxo-2-((tetrahydrofuran-3-yl)amino)acetyl)-1H-pyrrole-3-carboxamide]	10 to 50	83.8	< 10	> 100000	> 100000	70.5	19.8 (≈ 8.17 µg/mL)	81.6
Cc1c(C(=O)Nc2ccc(F)c(C#N)c2)c(C)n(C)c1C(=O)C(=O)NC(C)(C)CO [Example 8, N-(3-cyano-4-fluorophenyl)-5-(2-((1-hydroxy-2-methylpropan-2-yl)amino)-2-oxoacetyl)-1,2,4-trimethyl-1H-pyrrole-3-carboxamide]	< 10	70.6	< 10	> 100000	> 100000	52.0	80.9 (≈ 33.5 µg/mL)	
COC(=O)C(C)(C)NC(=O)C(=O)c1c(C)c(C(=O)Nc2ccc(F)c(C#N)c2)c(C)n1C [Example 9, methyl (2-(4-((3-cyano-4-fluorophenyl)carbamoyl)-1,3,5-trimethyl-1H-pyrrole-2-yl)-2-oxoacetylamino)-2-methylpropionate]	10 to 50		< 10	> 100000	> 100000		9.6 (≈ 4.25 µg/mL)	
Cc1c(C(=O)Nc2ccc(F)c(C#N)c2)c(C)n(C)c1C(=O)C(=O)N[C@H](C)C(F)(F)F [Example 11]	< 10		< 10	> 100000	> 100000	56.8	7.5 (≈ 3.29 µg/mL)	47.7
Cc1c(C(=O)Nc2ccc(F)c(C#N)c2)c(Br)n(C)c1C(=O)C(=O)NC(C)(C)C [Example 15, 2-bromo-5-(2-(tert-butylamino)-2-oxoacetyl)-N-(3-cyano-4-fluorophenyl)-1,4-dimethyl-1H-pyrrole-3-carboxamide]	10 to 50		< 10	> 100000			4.9 (≈ 2.27 µg/mL)	
Cc1c(C(=O)Nc2ccc(F)c(C#N)c2)c(Cl)n(C)c1C(=O)C(=O)NC(C)(C)C [Example 17, 5-(2-(tert-butylamino)-2-oxoacetyl)-2-chloro-N-(3-cyano-4-fluorophenyl)-1,4-dimethyl-1H-pyrrole-3-carboxamide]	10 to 50			> 100000	> 100000	44.9		47.4
Cc1c(C(=O)Nc2ccc(F)c(C#N)c2)c(C)n(C)c1C(=O)C(=O)NC1(CO)CC1 [Example 27, N-(3-cyano-4-fluorophenyl)-5-(2-((1-(hydroxymethyl)cyclopropyl)amino)-2-oxoacetyl)-1,2,4-trimethyl-1H-pyrrole-3-carboxamide]	10 to 50		10 to 50	> 100000	> 100000			
Cc1c(C(=O)Nc2ccc(F)c(C#N)c2)c(Cl)n(C)c1C(=O)C(=O)N[C@@H](C)C(F)(F)F [Example 29, (S)-2-chloro-N-(3-cyano-4-fluorophenyl)-1,4-dimethyl-5-(2-oxo-2-((1,1,1-trifluoroprop-2-yl)amino)acetyl)-1H-pyrrole-3-carboxamide]	10 to 50	99.6	< 10	> 100000	> 100000	88.7		99.2
Cc1c(C(=O)Nc2ccc(F)c(C#N)c2)c(Cl)n(C)c1C(=O)C(=O)N[C@H](C)C(F)(F)F [Example 30, (R)-2-chloro-N-(3-cyano-4-fluorophenyl)-1,4-dimethyl-5-(2-oxo-2-((1,1,1-trifluoroprop-2-yl)amino)acetyl)-1H-pyrrole-3-carboxamide]	< 10		10 to 50	> 100000	> 100000			
Cc1c(C(=O)Nc2ccc(F)c(N)c2)c(C)n(C)c1C(=O)C(=O)N[C@@H](C)C(F)(F)F [Example 42, (S)—N-(3-amino-4-fluorophenyl)-1,2,4-trimethyl-5-(2-oxo-2-((1,1,1-trifluoroprop-2-yl)amino)acetyl)-1H-pyrrole-3-carboxamide]	< 10	102	10 to 50		> 100000	85.3		61.9
Cc1c(C(=O)Nc2ccc(F)c(C#N)c2)c(C)n(C)c1C(=O)C(=O)NC1(C)CS(=O)(=O)C1 [Example 45, N-(3-cyano-4-fluorophenyl)-1,2,4-trimethyl-5-(2-((3-methyl-1,1-dioxidothietan-3-yl)amino)-2-oxoacetyl)-1H-pyrrole-3-carboxamide]	< 10	73	10 to 50			47		
